*1 amine or outer side, *2 acyl side, *3 side chain or, on linkers, in order; H or OH if unused. Where a SMILES comes first, the peptide text is derived from it. [ ]: non-standard residue; d: D form. The star is where a group is joined. DOTA = O=C(O)CN1CCN(CC(=O)O)CCN(CC(=O)*)CCN(CC(=O)O)CC1; Leuψ(CH2N)ThzNH2 = CC(C)C[C@@H](CN1CSC[C@H]1C(N)=O)N*; d2Nal = N[C@H](Cc1ccc2ccccc2c1)C(=O)O; Cya = N[C@@H](CS(=O)(=O)O)C(=O)O; X1 = O=C(CN1CCC(N[*:1])CC1)[*:2]
Legend:
GRPR = molecular target: T1, GRPR (Homo sapiens, UniProt P30550); test: Fluorometric intracellular calcium release assay using PC-3 cells; format: cell-based; details: 50 nM ligand
T1 construct: endogenous in cells; host or cells: PC-3 prostate cancer cells
T1 sequence (P30550 whole entry): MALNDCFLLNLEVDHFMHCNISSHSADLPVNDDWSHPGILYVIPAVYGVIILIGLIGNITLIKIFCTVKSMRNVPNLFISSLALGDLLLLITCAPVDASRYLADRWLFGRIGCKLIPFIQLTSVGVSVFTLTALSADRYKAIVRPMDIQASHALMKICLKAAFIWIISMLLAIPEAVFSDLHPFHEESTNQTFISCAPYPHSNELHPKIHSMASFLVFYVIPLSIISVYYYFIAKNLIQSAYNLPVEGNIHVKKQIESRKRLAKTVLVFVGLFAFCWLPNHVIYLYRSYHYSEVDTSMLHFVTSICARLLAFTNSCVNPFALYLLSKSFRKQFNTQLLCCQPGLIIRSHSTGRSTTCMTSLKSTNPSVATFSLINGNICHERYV
Protocol: Following previously published procedures, 5 × 10^4 PC-3 cells were seeded in 96-well clear-bottom black plates 24 h prior to the assay. The growth medium was removed and replaced with a loading buffer containing a calcium-sensitive dye (FLIPR Calcium 6 assay kit, Molecular Device, San Jose, CA, USA). After incubation at 37 °C for 30 min, the plates were placed in a FlexStation 3 microplate reader (Molecular Devices). […] Agonistic/antagonistic properties were determined using the relative fluorescent unit (RFU = max–min).

physchem = details: 1-octanol/phosphate buffer, pH 7.4
Protocol: Briefly, aliquots (2 μL) of the ^68Ga-labeled peptides were added to a vial containing 3 mL of 1-octanol and 3 mL of 0.1 M phosphate buffer (pH 7.4). The mixture was vortexed for 1 min and then centrifuged at 5000 rpm for 10 min. Samples of the 1-octanol (1 mL) and buffer (1 mL) layers were taken and counted in a gamma counter. LogD7.4 was calculated using the following equation: LogD7.4 = log10[(counts in 1-octanol phase)/(counts in buffer phase)].

[1] = for Fraction remaining intact in plasma: NRG mice, 15 min post-injection, n = 3; for Intact tracer in urine: mouse urine samples collected at 15 min post-injection
Protocol: Imaging, biodistribution, and in vivo stability studies were performed using male NOD.Cg-Rag1^tm1Mom Il2rg^tm1Wjl/SzJ (NRG) mice (from in-house breeding colonies) following previously published procedures. […] When the tumor grew to 5–8 mm in diameter over 3–4 weeks, the mice were used for PET/CT imaging and biodistribution studies.
At 15 min post-injection, the mice were sedated and euthanized, and urine and blood were collected. The plasma was extracted from whole blood by the addition of CH3CN (500 μL), vortexing, centrifugation, and the separation of the supernatants. The plasma and urine samples were analyzed via radio-HPLC by using the conditions for quality control of these ^68Ga-labeled radioligands (Table S3).

PC-3 tumor xenografts [2] = test: Ex vivo biodistribution in PC-3 tumor-bearing mice; details: 1 h post-injection, n = 4
Protocol: For biodistribution studies, the mice (n = 4) were injected with the radiotracer (~2–4 MBq, 0.03–0.07 nmol) as described above. […] At 1 h post-injection, the mice were euthanized by CO2 inhalation. Blood was withdrawn by cardiac puncture, and organs/tissues of interest were collected, weighed and counted using a Perkin Elmer (Waltham, MA, USA) Wizard2 2480 automatic gamma counter.

PC-3 tumor xenografts [3] = test: PET/CT imaging of mice bearing PC-3 tumor xenografts; format: in vivo; details: 1 h post-injection
Protocol: The PET/CT imaging experiments were carried out using a Siemens (Knoxville, TN, USA) Inveon micro-PET/CT scanner. […] At 50 min post-injection, a 10 min CT scan was conducted: first for localization and attenuation corrections after segmentation for reconstructing the PET images, followed by a 10 min static PET imaging acquisition.

| Molecule | Ca2+ efflux (relative fluorescence units, max-min) (GRPR) [RFU] | logD (physchem) | Excretion pathway in PET images (PC-3 tumor xenografts [3]) | also measured |
| --- | --- | --- | --- | --- |
| Nc1ncnc2c1ncn2[C@@H]1O[C@H](COP(=O)(O)OP(=O)(O)OP(=O)(O)O)[C@@H](O)[C@H]1O [ATP, adenosine triphosphate] | 334 ± 39.0 | – | – | – |
| CC(C)C[C@@H](CN1CSC[C@H]1C(N)=O)NC(=O)[C@H](Cc1c[nH]cn1)NC(=O)CNC(=O)[C@@H](NC(=O)[C@H](C)NC(=O)[C@H](Cc1c[nH]c2ccccc12)NC(=O)[C@H](CCC(N)=O)NC(=O)[C@H]1Cc2c([nH]c3ccccc23)CN1C(=O)CN1CCC(NC(=O)CN2CCN(CC(=O)O)CCN(CC(=O)O)CCN(CC(=O)O)CC2)CC1)C(C)C [Ga-TacsBOMB4] | 9.30 ± 3.74 | – | – | – |
| CC(C)C[C@@H](CN1CSC[C@H]1C(N)=O)NC(=O)[C@H](Cc1c[nH]cn1)NC(=O)CNC(=O)[C@@H](NC(=O)[C@H](C)NC(=O)[C@H](Cc1c[nH]c2ccccc12)NC(=O)[C@H](CCC(N)=O)NC(=O)[C@@H](Cc1ccc2ccccc2c1)NC(=O)CN1CCC(NC(=O)[C@H](CS(=O)(=O)O)NC(=O)CN2CCN(CC(=O)O)CCN(CC(=O)O)CCN(CC(=O)O)CC2)CC1)C(C)C [Ga-TacsBOMB6] ({DOTA}-[Cya][X1][d2Nal]QWAVGH-{Leuψ(CH2N)ThzNH2}) | 23.0 ± 0.06 | – | – | – |
| CC(C)C[C@H](NC(=O)C[C@H](O)[C@H](CC(C)C)NC(=O)[C@H](Cc1c[nH]cn1)NC(=O)CNC(=O)[C@@H](NC(=O)[C@H](C)NC(=O)[C@H](Cc1c[nH]c2ccccc12)NC(=O)[C@H](CCC(N)=O)NC(=O)[C@@H](Cc1ccccc1)NC(=O)CN1CCC(NC(=O)CN2CCN(CC(=O)O)CCN(CC(=O)O)CCN(CC(=O)O)CC2)CC1)C(C)C)C(N)=O [[^68Ga]Ga-RM2, metal not drawn, reference compound] | – | -2.76 ± 0.03 | primarily excreted through the renal pathway | Fraction remaining intact in plasma [1]: 71.9 ± 10.4%; Intact tracer in urine [1]: no intact; Spleen uptake (PC-3 tumor xenografts [2]): 0.44 ± 0.26 %ID/g |
| CC(C)C[C@@H](CN1CSC[C@H]1C(N)=O)NC(=O)[C@H](Cc1c[nH]cn1)NC(=O)CNC(=O)[C@@H](NC(=O)[C@H](C)NC(=O)[C@H](Cc1c[nH]c2ccccc12)NC(=O)[C@H](CCC(N)=O)NC(=O)[C@@H](Cc1ccccc1)NC(=O)CN1CCC(NC(=O)CN2CCN(CC(=O)O)CCN(CC(=O)O)CCN(CC(=O)O)CC2)CC1)C(C)C [[^68Ga]Ga-TacsBOMB2, metal not drawn] | – | -2.39 ± 0.13 | primarily excreted through the renal pathway | Fraction remaining intact in plasma [1]: 83.3 ± 1.45%; Intact tracer in urine [1]: no intact |
| CC(C)C[C@@H](CN1CSC[C@H]1C(N)=O)NC(=O)[C@H](Cc1c[nH]cn1)NC(=O)CNC(=O)[C@@H](NC(=O)[C@H](C)NC(=O)[C@H](Cc1c[nH]c2ccccc12)NC(=O)[C@H](CCC(N)=O)NC(=O)[C@@H](Cc1ccc2ccccc2c1)NC(=O)CN1CCC(NC(=O)CN2CCN(CC(=O)O)CCN(CC(=O)O)CCN(CC(=O)O)CC2)CC1)C(C)C [[^68Ga]Ga-TacsBOMB3, metal not drawn] | – | -1.75 ± 0.04 | primarily excreted through the renal pathway | – |
| CC(C)C[C@@H](CN1CSC[C@H]1C(N)=O)NC(=O)[C@H](Cc1c[nH]cn1)NC(=O)CNC(=O)[C@@H](NC(=O)[C@H](C)NC(=O)[C@H](Cc1c[nH]c2ccccc12)NC(=O)[C@H](CCC(N)=O)NC(=O)[C@@H](Cc1ccc2ccccc2c1)NC(=O)CN1CCC(NC(=O)[C@H](CS(=O)(=O)O)NC(=O)CN2CCN(CC(=O)O)CCN(CC(=O)O)CCN(CC(=O)O)CC2)CC1)C(C)C [[^68Ga]Ga-TacsBOMB6, metal not drawn] ({DOTA}-[Cya][X1][d2Nal]QWAVGH-{Leuψ(CH2N)ThzNH2}) | – | -2.55 ± 0.16 | primarily excreted through the renal pathway | – |
| [D-Phe^6,Leu-NHEt^13,des-Met^14]Bombesin(6–14) | 25.3 ± 1.92 | – | – | – |
| bombesin | 754 ± 38.3 | – | – | – |
